Measurements taken from PubChem BioAssay AID1918943 (Molecular Pharmacology Branch, DTP, NCI, 2023).
“And” between values parts separate entries of the source, which are not always exact repeats. Equal entries are not always repeated.

Test system: 855422-203-R-J1-PDC complex spheroid viability
Experiment: Anticancer human tumor 855422-203-R-J1-PDC patient-derived bladder carcinoma cell line growth inhibition
Settings: for viability, T/C: stronger effect = lower value
Method in brief: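 Drug combinations with the LSD1 inhibitor iadademstat tested on tumor cells co-cultured as spheroids with endothelial cells and mesenchymal stem cells. Concentrations descended in half-log increments from clinical Cmax or 10 microM.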

[1] = curve of first compound, second compound 0.1 µM
[2] = curve of first compound, second compound 0.316 µM
[3] = curve of first compound, second compound 1 µM
[4] = curve of first compound, second compound 3.16 µM
[5] = curve of first compound, second compound 10 µM
[6] = second compound 0.1 µM, first compound 0.00316 µM
[7] = second compound 0.1 µM, first compound 0.01 µM
[8] = second compound 0.1 µM, first compound 0.0316 µM
[9] = second compound 0.1 µM, first compound 0.1 µM
[10] = second compound 0.1 µM, first compound 0.316 µM
[11] = second compound 0.1 µM, first compound 1 µM
[12] = second compound 0.316 µM, first compound 0.00316 µM
[13] = second compound 0.316 µM, first compound 0.01 µM
[14] = second compound 0.316 µM, first compound 0.0316 µM
[15] = second compound 0.316 µM, first compound 0.1 µM
[16] = second compound 0.316 µM, first compound 0.316 µM
[17] = second compound 0.316 µM, first compound 1 µM
[18] = second compound 1 µM, first compound 0.00316 µM
[19] = second compound 1 µM, first compound 0.01 µM
[20] = second compound 1 µM, first compound 0.0316 µM
[21] = second compound 1 µM, first compound 0.1 µM
[22] = second compound 1 µM, first compound 0.316 µM
[23] = second compound 1 µM, first compound 1 µM
[24] = second compound 3.16 µM, first compound 0.00316 µM
[25] = second compound 3.16 µM, first compound 0.01 µM
[26] = second compound 3.16 µM, first compound 0.0316 µM
[27] = second compound 3.16 µM, first compound 0.1 µM
[28] = second compound 3.16 µM, first compound 0.316 µM
[29] = second compound 3.16 µM, first compound 1 µM
[30] = second compound 10 µM, first compound 0.00316 µM
[31] = second compound 10 µM, first compound 0.01 µM
[32] = second compound 10 µM, first compound 0.0316 µM
[33] = second compound 10 µM, first compound 0.1 µM
[34] = second compound 10 µM, first compound 0.316 µM
[35] = second compound 10 µM, first compound 1 µM
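Further: drug exposure lasted 7 days starting on day 3 after seeding.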
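Wherever viability, T/C is given: luminescence viability as percent of DMSO vehicle wells = 100%.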

SMILES | IC50 [1] | IC50 [2] | IC50 [3] | IC50 [4] | IC50 [5] | viability, T/C [6] | viability, T/C [7] | viability, T/C [8] | viability, T/C [9] | viability, T/C [12] | viability, T/C [13] | viability, T/C [14] | viability, T/C [15] | viability, T/C [18] | viability, T/C [19] | viability, T/C [20] | viability, T/C [21] | viability, T/C [24] | viability, T/C [25] | viability, T/C [26] | also measured
CC1COCCN1c1cc(-c2ccnn2C)c2ccnc(-c3ccn[nH]3)c2n1 (centres undefined) + NC1CCC(NC2CC2c2ccccc2)CC1 | 183 nM | 163 nM | 178 nM | 99.9 nM | 86.1 nM | 95.1% | 83.1% | 86.5% | 59.5% | 91.8% | 78.9% | 90.3% | 60% | 85% | 79.7% | 96.4% | 63.8% | 87.4% | 83.5% | 87.4% | viability, T/C [10]: 41.5%; viability, T/C [11]: 33%; viability, T/C [16]: 39.5%; viability, T/C [17]: 33%; viability, T/C [22]: 38.7%; viability, T/C [23]: 34%; viability, T/C [27]: 49.9%; viability, T/C [28]: 32.5%; viability, T/C [29]: 27.2%; viability, T/C [30]: 88%; viability, T/C [31]: 81.1%; viability, T/C [32]: 84%; viability, T/C [33]: 44.9%; viability, T/C [34]: 33.2%; viability, T/C [35]: 31.7%
COc1cc(Nc2ncc3c(n2)-c2ccc(Cl)cc2C(c2c(F)cccc2OC)=NC3)ccc1C(=O)O + NC1CCC(NC2CC2c2ccccc2)CC1 | > 1000 nM | > 1000 nM | > 1000 nM | 892 nM | > 1000 nM | 81% | 91.2% | 78.8% | 70.8% | 88.1% | 81.2% | 66.4% | 70.7% | 95.7% | 94.6% | 67.8% | 71.2% | 76.3% | 81.3% | 70.8% | viability, T/C [10]: 64.5%; viability, T/C [11]: 50.3%; viability, T/C [16]: 64.2%; viability, T/C [17]: 56.5%; viability, T/C [22]: 61.5%; viability, T/C [23]: 57%; viability, T/C [27]: 66.1%; viability, T/C [28]: 59.4%; viability, T/C [29]: 48.8%; viability, T/C [30]: 83.2%; viability, T/C [31]: 85.5%; viability, T/C [32]: 64.8%; viability, T/C [33]: 63%; viability, T/C [34]: 57.7%; viability, T/C [35]: 52.6%
CC[C@@]1(O)C(=O)OCc2c1cc1n(c2=O)Cc2cc3c(CN(C)C)c(O)ccc3nc2-1 + NC1CC1c1ccc(-c2cccc(O)c2)cc1 | 8.59 nM | 7.94 nM | 7.85 nM | 6.85 nM | 6.35 nM | 98.1% | 42.7% | 21.8% | 19.4% | 92.8% | 39.1% | 22.8% | 19.4% | 84.8% | 40.5% | 22.8% | 18.8% | 87.2% | 31.8% | 20.9% | viability, T/C (second compound 0.1 µM, first compound 0.000316 µM): 97.8%; viability, T/C (second compound 0.1 µM, first compound 0.001 µM): 102%; viability, T/C (second compound 0.316 µM, first compound 0.000316 µM): 98.9%; viability, T/C (second compound 0.316 µM, first compound 0.001 µM): 102%; viability, T/C (second compound 1 µM, first compound 0.000316 µM): 90.5%; viability, T/C (second compound 1 µM, first compound 0.001 µM): 94.6%; viability, T/C (second compound 3.16 µM, first compound 0.000316 µM): 85.7%; viability, T/C (second compound 3.16 µM, first compound 0.001 µM): 90.3%; viability, T/C [27]: 18.6%; viability, T/C (second compound 10 µM, first compound 0.000316 µM): 81.5%; viability, T/C (second compound 10 µM, first compound 0.001 µM): 97.3%; viability, T/C [30]: 82.2%; viability, T/C [31]: 28.9%; viability, T/C [32]: 21.5%; viability, T/C [33]: 16.3%
O=C(C=Cn1cnc(-c2cc(C(F)(F)F)cc(C(F)(F)F)c2)n1)NNc1cnccn1 + NC1CCC(NC2CC2c2ccccc2)CC1 | 34.6 nM | 54.3 nM | 45.6 nM | 40.4 nM | 45.1 nM | 126% | 106% | 49.8% | 44.6% | 142% | 98.2% | 51.2% | 49.5% | 128% | 116% | 54.3% | 46.6% | 110% | 106% | 52.8% | viability, T/C [10]: 38.1%; viability, T/C [11]: 28.6%; viability, T/C [16]: 39.5%; viability, T/C [17]: 28.1%; viability, T/C [22]: 40%; viability, T/C [23]: 28.4%; viability, T/C [27]: 44.3%; viability, T/C [28]: 40.9%; viability, T/C [29]: 27.9%; viability, T/C [30]: 99.1%; viability, T/C [31]: 101%; viability, T/C [32]: 55.5%; viability, T/C [33]: 43.1%; viability, T/C [34]: 37.5%; viability, T/C [35]: 31.9%
NS(=O)(=O)OCC1CC(n2ccc3c(NC4CCc5ccccc54)ncnc32)CC1O (centres undefined) | – | – | – | – | – | – | – | – | – | – | – | – | – | – | – | – | – | – | – | – | viability, T/C (compound 0.00949 µM): 97.8% and 103%; viability, T/C (compound 0.03 µM): 81% and 96.5%; viability, T/C (compound 0.0949 µM): 81.1% and 100%; viability, T/C (compound 0.3 µM): 63.5% and 87.5%; viability, T/C (compound 0.949 µM): 25.4% and 33.6%; viability, T/C (compound 3 µM): 9.22% and 9.95%; IC50 (curve of compound): 436 nM and 668 nM
CC(C)CC(NC(=O)CNC(=O)c1cc(Cl)ccc1Cl)B1OC(=O)CC(CC(=O)O)(C(=O)O)O1 (centres undefined) | – | – | – | – | – | – | – | – | – | – | – | – | – | – | – | – | – | – | – | – | viability, T/C (compound 0.000316 µM): 105%; viability, T/C (compound 0.001 µM): 76.8% and 109%; viability, T/C (compound 0.00316 µM): 6.4% and 3.59%; viability, T/C (compound 0.01 µM): 1.38% and 0.62%; viability, T/C (compound 0.0316 µM): 0.11% and 0.19%; viability, T/C (compound 0.1 µM): 0.17% and 0.19%; IC50 (curve of compound): 1.55 nM and 1.88 nM
